Source: patent US20240425529A1, “BORIC ACID DERIVATIVE” (SHOUYAO HOLDINGS (BEIJING) CO., LTD., priority 2021, published 2024)

Key:
LMP7 = molecular target: T1, LMP7 (Homo sapiens, UniProt P28062); experiment: Cytological inhibitory activity on LMP7 in MOLT-4 cells; assay type: cell-based; settings: incubation for 2 hours with compound, read-out: Cytological activity data LMP7 Activity (MOLT-4Cell)
T1 construct: using MOLT-4 cell lysate as the enzyme source of LMP7; endogenous in cells; host or cells: MOLT-4 (human acute lymphoblastic leukemia cells)
Method in brief: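 MOLT-4 cells pre-incubated 2 h with compound (8 concentrations, 5-fold dilution series from 2 mM DMSO stock, 5% FBS), washed and lysed. Lysate (20 ng/μl, 2× stock) reacted with Ac-ANW-AMC (100 μM, 2× stock) in 20 mM Tris pH 8.0, 0.5 mM EDTA, 1 h, 23 °C. Fluorescence at 345/445 nm; IC50 fitted.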

[1] = Animal pharmacokinetic study in rats, single gavage; assay type: in vivo; settings: rat, po; male rats, single gavage 5 mg/kg, plasma
Method: Three healthy adult male rats from Beijing Vital River Experimental animal Technology Co. Ltd were used for animal pharmacokinetic experiments. The compounds were suspended in 20% sulfobutyl ether-β-cyclodextrin (W/W/V) at a concentration of 1 mg/mL at a dosing volume of 5 mL/kg by single gavage at a dose of 5 mg/kg. Animals were fasted overnight before the experiment, from 10 hours before the administration to 4 hours after the administration. Blood was collected at 0.25, 0.5, 1, 2, 4, 6, 8, and 24 hours after the administration. The animals were anesthetized with isoflurane. About 0.4 mL of whole blood was collected from the orbital venous plexus using a glass blood collection tube and placed in a heparin anticoagulant tube. The sample was centrifuged at 4200 rpm for 5 min at 4° C. The plasma was transferred to a centrifuge tube and stored at −80° C. for later analysis. The plasma sample analysis used the acetonitrile protein precipitation method to extract the compound to be tested and internal standard (Warfarin or Propranolol) from rat plasma, and the extraction solution was analyzed by LC/MS/MS. The plasma concentration-time data of individual animals measured were analyzed using anon-compartmental model using the WinNonlin (version 5.2.1; Pharsight company) software, and the following pharmacokinetic parameters were obtained: maximum (peak) plasma drug concentration Cmax; Time to max Tmax; the area under the curve AUC0-inf of blood drug concentration-time from half-life T½ and extrapolation to infinite time.

| SMILES | IC50 (LMP7) [nM] | AUC(0-inf) [1] [ng·h/mL] | Cmax [1] [ng/mL] | Tmax [1] [h] | half-life [1] [h] |
| --- | --- | --- | --- | --- | --- |
| O=C(Nc1cnccn1)C(=O)N[C@@H](Cc1coc2ccccc12)B(O)O [Ex. 9, (R)-(2-(benzofuran-3-yl)-1-(2-oxo-2-(pyrazin-2-ylamino)acetamido)ethyl) boronic acid] | 4.82 | 38600 | 3880 | 2.67 | 5.58 |
| O=C(Nc1ccccn1)C(=O)N[C@@H](Cc1coc2ccccc12)B(O)O [Ex. 12] | 3.77 | 26500 | 3930 | 0.58 | 14.7 |
| O=C(Nc1nc2ccccc2s1)C(=O)N[C@@H](Cc1coc2ccccc12)B(O)O [Ex. 27, (R)-(2-(benzofuran-3-yl)-1-(2-oxo-2-((benzo[d]thiazol-2-yl)amino)acetamido)ethyl)boronic acid] | 1.58 | 24200 | 1910 | 3.33 | 5.17 |
| Cc1cnc(NC(=O)C(=O)N[C@@H](Cc2coc3ccccc23)B(O)O)s1 [Ex. 32, (R)-(2-(benzofuran-3-yl)-1-(2-oxo-2-((5-methylthiazol-2-yl)amino)acetamido)ethyl)boronic acid] | 1.72 | 22200 | 1090 | 0.67 | 25.3 |
| O=C(Nc1cc(Cl)ccn1)C(=O)N[C@@H](Cc1coc2ccccc12)B(O)O [Ex. 49, (R)-(2-(benzofuran-3-yl)-1-(2-oxo-2-((4-chloropyridin-2-yl)amino)acetamido)ethyl)boronic acid] | 1.9 | 25400 | 1430 | 0.92 | 16.4 |
| CC1CC(C)(C)OB([C@H](Cc2coc3ccccc23)NC(=O)C(=O)Nc2cnccn2)O1 (stereo partly drawn) [Ex. 67] | 0.79 | – | – | – | – |
| O=C1COB([C@H](Cc2coc3ccccc23)NC(=O)C(=O)Nc2cnccn2)O1 [Ex. 73] | 1.15 | – | – | – | – |
